Measured values published in article PMC7216583 (Parasites & Vectors, 2020).
Structures can show the parent of a compound that is named as a salt. Where two headings read alike, the source gives them in different places.

How the values were obtained:
[1] = test system: ErbB1; design: method as in S-inhibitor catalog; conditions: vendor brief description; ref S-inhibitor catalog; cited from earlier work
[2] = test system: Toxoplasma gondii RH-2F tachyzoites; test: microbe, parasite or virus in culture; conditions: 72 h
[3] = test system: ErbB2; design: method as in S-inhibitor catalog; conditions: vendor brief description; ref S-inhibitor catalog; cited from earlier work
[4] = test system: CDK1; design: method as in S-inhibitor catalog; conditions: vendor brief description; ref S-inhibitor catalog; cited from earlier work
[5] = test system: CDK9; design: method as in S-inhibitor catalog; conditions: vendor brief description; ref S-inhibitor catalog; cited from earlier work
[6] = biological target: histamine 1 (H1) receptor; design: method as in vendor brief description; conditions: ref vendor brief description; cited from earlier work
[7] = biological target: H3-receptor; design: method as in vendor brief description; conditions: ref vendor brief description, cited from earlier work
[8] = biological target: endothelin receptor-A; design: method as in vendor brief description; conditions: ref vendor brief description; cited from earlier work
[9] = biological target: N-methyl-D-aspartate (NMDA) receptor; design: method as in vendor brief description; conditions: ref vendor brief description; cited from earlier work
[10] = biological target: mTOR; design: method as in vendor brief description; conditions: ref vendor brief description; cited from earlier work
[11] = test system: TRPA1 channel; design: method as in vendor brief description; conditions: ref vendor brief description, cited from earlier work
[12] = biological target: epidermal growth factor receptor (EGFR); design: method as in vendor brief description; conditions: ref vendor brief description; read-out: IC50 EGFR; cited from earlier work
[13] = test system: HSP90; design: method as in S-inhibitor catalog; conditions: vendor brief description; ref S-inhibitor catalog; cited from earlier work
[14] = test system: Kir2.1; design: method as in vendor brief description; conditions: ref vendor brief description, cited from earlier work
[15] = test system: c-Met; design: method as in S-inhibitor catalog; conditions: vendor brief description; ref S-inhibitor catalog; cited from earlier work
[16] = biological target: Bcl-2; design: method as in library vendor description; conditions: ref library vendor description; cited from earlier work
[17] = test system: Smoothened (Smo); design: method as in S-inhibitor catalog; conditions: vendor brief description; ref S-inhibitor catalog; cited from earlier work
[18] = test system: CDK; design: method as in S-inhibitor catalog; conditions: vendor brief description; ref S-inhibitor catalog; cited from earlier work
[19] = test system: 5-HT2B; design: method as in S-inhibitor catalog; conditions: vendor brief description; ref S-inhibitor catalog; cited from earlier work
[20] = test system: JAK1; design: method as in vendor brief description; conditions: ref vendor brief description; cited from earlier work
[21] = test system: hTRPV1; design: method as in S-inhibitor catalog; conditions: in HEK293 cells; vendor brief description; ref S-inhibitor catalog; cited from earlier work
[22] = test system: ATR; design: method as in vendor brief description; conditions: ref vendor brief description; cited from earlier work
[23] = biological target: 5-HT3A; design: method as in vendor brief description; conditions: ref vendor brief description; cited from earlier work
[24] = test system: CXCR4; design: method as in vendor brief description; conditions: ref vendor brief description; cited from earlier work
[25] = Side effects / survival of uninfected healthy mice; format: in vivo, BALB/c mice; conditions: healthy mice treated with compound, data not shown
Experimental: All mice were purchased from the Laboratory Animal Center, Wenzhou Medical University, Zhejiang, China. They were bred and handled in strict accordance with the Good Animal Practice requirements of the Animal Ethics Procedures and Guidelines of China. In a preliminary experiment aiming to assess the side effects of compounds, female BALB/c mice (6–8 weeks old, ~20 g) were orally administered with each compound at 50 mg/kg for 5 days and were monitored for 30 days. There was no obvious clinical toxicity after treatment with all compounds during this time period.

[26] = test system: T. gondii RH strain; test: Murine model of acute toxoplasmosis: tissue parasite burden by B1 gene qPCR; format: in vivo, BALB/c mice; conditions: 7 dpi, 50 mg/kg oral for 5 days, n = 5, compared with vehicle control
Experimental: Meanwhile, the parasite burden in the brain, liver and spleen of infected mice was measured at 7 dpi as described previously. Briefly, whole organs were mixed in lysis buffer (50 mM Tris pH 8.0, 50 mM EDTA, 1% SDS, 50 mg/ml of proteinase K) and incubated overnight at 56 °C. Total genomic DNA from 25 mg of tissue in 100 μl of lysis buffer was then extracted using DNeasy Blood and Tissue Kit (Qiagen, Shanghai, China) following the manufacturer’s instructions. […]. Amplification was performed in a final volume of 20 μl using a ChamQ Universal SYBR qPCR Master Mix (Cat# Q711-02; Vazyme, Nanjing, China). Each reaction contained 10 μl of 2× ChamQ SYBR qPCR Master Mix, 1 μl of template DNA, 8.2 μl of distilled water and 0.4 μM each primer. The following amplification conditions were applied: 30 s at 95 °C; 40 cycles of 95 °C for 10 s, 60 °C for 30 s; and one cycle of 95 °C for 15 s, 60 °C for 1 min and 95 °C for 15 s. The number of parasites was calculated from the standard curve prepared in parallel.

[27] = test system: FGFR1; conditions: read-out: IC50, FGFR1; vendor brief description; ref S-inhibitor catalog; cited from earlier work
[28] = test system: Toxoplasma gondii RH-2F tachyzoites; conditions: preliminary screen of compound library; mean
[29] = test system: Akt1; design: method as in vendor brief description; conditions: ref vendor brief description; cited from earlier work
[30] = read-out: Parasite inhibition (%) mean, preliminary screen of compound library, mean

In the case of `C[C@@H]1COC(Nc2ccc3ncnc(Nc4ccc(OCc5nccs5)c(Cl)c4)c3c2)=N1` [ARRY334543], the IC50 [1] is given as 7 nM, the inhibition of growth at 5 µM [2, 30] is given as 12.4% and the IC50 [3] is given as 2 nM.

In the case of `Cc1ncc(-c2ccnc(Nc3ccc(S(C)(=O)=O)cc3)n2)n1C(C)C` [AZD5438], the inhibition of growth at 5 µM [2, 30] is listed as 6.8%, the IC50 [4] is listed as 16 nM and the IC50 [5] is listed as 20 nM.

In the case of `O=C(O)CCCN1CCC(O[C@@H](c2ccc(Cl)cc2)c2ccccn2)CC1.O=S(=O)(O)c1ccccc1` [Bepotastine Besilate], the inhibition of growth at 5 µM [2, 30] is listed as 50.1% and the “pIC50 histamine 1 (H1) receptor” value [6] is listed as “Bepotastine is a non-sedating, selective antagonist of histamine 1 (H1) receptor with pIC50 of 5.7”.

In the case of `CNCCc1ccccn1` [Betahistine 2HCl], the IC50 ([7]; read-out: IC50 histamine H3 receptors) is given as 1900 nM and the inhibition of growth at 5 µM [2, 30] is given as 3.2%.

In the case of `COc1ccccc1Oc1c(NS(=O)(=O)c2ccc(C(C)(C)C)cc2)nc(-c2ncccn2)nc1OCCO` [Bosentan Hydrate], the Ki [8] is listed as […] and the inhibition of growth at 5 µM [2, 30] is listed as 5.3%.

In the case of `O=C(c1ccc(OCCCc2cnc[nH]2)cc1)C1CC1` [Ciproxifan], the IC50 ([7]; read-out: IC50 H3-receptor) is given as 9.2 nM and the inhibition of growth at 5 µM [2, 30] is given as 0.5%.

For `C[C@]12N[C@H](Cc3ccccc31)c1ccccc12` [Dizocilpine (MK 801)], the inhibition of growth at 5 µM [2, 30] is given as 0.4% and the Ki [9] is given as 30.5 nM.

For `CCNC(=O)Nc1ccc(-c2nc3c(c(N4CCOC[C@@H]4C)n2)CCN(C2COC2)C3)cc1` [GDC-0349], the Ki [10] is listed as 3.8 nM and the inhibition of growth at 5 µM [2, 30] is listed as -13.8%.

For `CC(C)c1ccc(NC(=O)Cn2cnc3c2c(=O)n(C)c(=O)n3C)cc1` [HC-030031], the inhibition of growth at 5 µM [2, 30] is listed as 1.6%, the IC50 ([11]; AITC-evoked, read-out: IC50 AITC-evoked calcium influx) is listed as 6200 nM and the IC50 ([11]; formalin-evoked, read-out: IC50 formalin-evoked calcium influx) is listed as 5300 nM.

For `CC(C)n1nc(-c2ccc3oc(N)nc3c2)c2c(N)ncnc21` [INK 128 (MLN0128)], the IC50 [10] is listed as 1 nM and the inhibition of growth at 5 µM [2, 30] is listed as 27.8%.

For `C#Cc1cccc(Nc2ncnc3cc4c(cc23)OCCOCCOCCO4)c1` [Icotinib], the IC50 [12] is given as 5 nM and the inhibition of growth at 5 µM [2, 30] is given as 13.6%.

For `CCc1c(O)cc(O)c(C(=O)c2ccc(OCCN3CCOCC3)c(OC)c2)c1CC(=O)N(CCOC)CCOC` [KW-2478], the IC50 [13] is listed as 3.8 nM and the inhibition of growth at 5 µM [2, 30] is listed as 7.8%.

For `COc1ccc(CNCc2cccc3ccccc23)cc1` [ML133 HCl], the inhibition of growth at 5 µM [2, 30] is listed as 0.7%, the IC50 ([14]; pH 7.4) is listed as 1800 nM and the IC50 ([14]; pH 8.5) is listed as 290 nM.

For `Cn1cc(-c2ccc3ncc(Cc4ccc5ncccc5c4)n3n2)cn1` [NVP-BVU972], the IC50 [15] is given as 14 nM and the inhibition of growth at 5 µM [2, 30] is given as 38.8%.

In the case of `COC1=CC(c2cc3ccccc3[nH]2)=N/C1=C\c1[nH]c(C)cc1C` [Obatoclax mesylate (GX15-070)], the inhibition of growth at 5 µM ([2]; read-out: Parasite inhibition (%) mean, preliminary screen, mean) is listed as 52.7% and the Ki [16] is listed as 220 nM.

For `Cc1cnc(-c2cc(N3CCN(C(=O)CCS(C)(=O)=O)CC3)ncc2Cl)c(C)c1` [PF-5274857], the inhibition of growth at 5 µM [2, 30] is given as -0.8%, the IC50 [17] is given as 5.8 nM and the Ki [17] is given as 4.6 nM.

For `COc1ccc(F)c(F)c1C(=O)c1cnc(NC2CCN(S(C)(=O)=O)CC2)nc1N` [R547], the inhibition of growth at 5 µM [2, 30] is listed as 11.7%, the IC50 [18] is listed as 80 nM and the Ki [18] is listed as 1 to 3 nM.

In the case of `CC(C)c1cc(-c2ccc(F)c3ccccc23)nc(N)n1` [RS-127445], the inhibition of growth at 5 µM [2, 30] is listed as -0.7%, the “pIC50, 5-HT2B” value [19] is listed as 10.4 and the “pKi, 5-HT2B” value [19] is listed as 9.5.

In the case of `N#CC[C@@H](C1CCCC1)n1cc(-c2ncnc3[nH]ccc23)cn1` [S-Ruxolitinib], the IC50 [20] is given as […] and the inhibition of growth at 5 µM [2, 30] is given as 10.7%.

For `O=C(Nc1ccccc1Br)N[C@@H]1CCN(c2ccc(C(F)(F)F)cn2)C1` [SB705498], the “pIC50, hTRPV1” value [21] is given as 7.1, the “pKi, hTRPV1” value [21] is given as 7.6 and the inhibition of growth at 5 µM [2, 30] is given as 0.6%.

In the case of `CS(=O)(=O)c1ccc(-c2cnc(N)c(C(=O)Nc3ccccc3)n2)cc1` [VE-821], the inhibition of growth at 5 µM [2, 30] is given as -7.9%, the IC50 [22] is given as 26 nM and the Ki [22] is given as 13 nM.

In the case of `CN1CCN(c2nc3ccccc3nc2Cl)CC1` [VUF 10166], the inhibition of growth at 5 µM [2, 30] is given as 0.4% and the Ki [23] is given as 0.04 nM.

In the case of `c1ccc(NCc2ccc(CNc3ccccn3)cc2)nc1` [WZ 811], the inhibition of growth at 5 µM [2, 30] is given as -5.7% and the EC50 [24] is given as 0.3 nM.

For `CCc1nc(N)nc(N)c1-c1ccc(Cl)cc1` [pyrimethamine, Pyrimethamine], the “survival of healthy (uninfected) mice” value [25] was “survived” and the “parasite burden in brain, liver and spleen” value [26] was “lowest parasite burden in tissue”.

In the case of AZD4547, the IC50 [27] is given as 0.2 nM.

For AZD5363, the “Parasite inhibition (%) mean” value [28] is given as 33.4% and the IC50 [29] is given as 3 nM.
